Test results: patent US20250032651A1, “[177LU] LUTETIUM-PSMA I&T COMPOSITION AND DOSIMETRY, KIT, METHOD OF MAKING, AND METHOD OF USING THEREOF” (Curium US LLC, priority 2022, published 2025)
Where “and” joins values, the source holds several entries; their conditions need not be identical. Equal entries are not always repeated.

Assay: Normal organ dosimetry Cycle 1: SPECT/CT, TIACs, OLINDA 2.2.3 absorbed radiation dose
Assay type: in vivo, human
Settings: individual patients/doses
Method: This Example presents the biodistribution, dosimetry, and pharmacokinetics (PK) results of a PK/Dosimetry sub-study performed as part of a Phase III trial. Twenty-seven (27) patients were administered a target activity of 7.4±10% GBq of ^177Lu-PSMA-I&T and underwent single photon emission computed tomography (SPECT)/computed tomography (CT) imaging at four timepoints (4 h, 24 h, 48 h, and 168 h). Image data was analysed to compute time-activity curves (TACs) and subsequently time-integrated activity coefficients (TIACs) in each organ of interest and in organs showing appreciable and meaningful ^177Lu-PSMA-I&T activity. Organ Level Internal Dose Assessment (OLINDA 2.2.3) was used to compute organ and whole body absorbed radiation doses for each patient.
All participating sites underwent a rigorous site setup process during which all dose calibrators, scanners, and gamma counters used in the sub-study were calibrated. Sites were allowed to enroll patients in the sub-study only after the completion and approval of all site setup processes by Invicro. Patients underwent SPECT/CT imaging, with anatomical coverage typically extending from the salivary glands to the pelvis, following the administration of a targeted 7.4±10% GBq of ^177Lu-PSMA-I&T at cycle 1. SPECT/CT imaging was performed at four timepoints: 4 h, 24 h, 48 h, and 168 h post-injection. Additionally, a subset of patients imaged at Cycle 1 (16 out of 27), were also imaged at Cycle 3 (Table 2).
The imaging data was analyzed using Invicro's VivoQuant software, a validated software used in a 21 CFR § 11-compliant workflow. The general quantification approach was based on the principles detailed in the Medical Internal Radiation Dose (MIRD) Pamphlet No. 16, No 23, and No 26 as appropriate.
Volume of interest (VOI) (kidneys, bladder, liver, lumbar vertebrae L2-L4, lacrimal glands, salivary glands [parotid and submandibular glands], and whole body) were delineated on each dataset by a trained image analyst. […] Organs were segmented either by drawing the entire contour of the organ, or by placing a sphere in a representative region of the organ and then multiplying by the organ's effective mass (based on patient's height and weight). Segmentation methods for each organ are specified in Table 3 and were consistently applied to each patient.
Clearance of the radiopharmaceutical was derived from a data-appropriate fit of each organ's TAC. Depending on the TAC's shape, the data was fitted with the sum of one, two, or three exponentials, or using a rise and fall model. Fitting was performed with in-house Python software. TIACs were calculated through analytical integration of the curve fit extrapolated to infinity. […] A whole-body TAC was derived from delineating the imaged body. The remainder activity was determined by subtracting the cumulative organ TIACs from the whole body TIAC.
Organ TIACs were input into OLINDA 2.2.3 for the computation of organ and whole-body absorbed doses, using International Commission on Radiological Protection (ICRP)-103 weighing factors. The ICRP-89 derived male phantom was used for dose estimation. Organs and body mass as defined by ICRP-89 were scaled based on height and mass using patient effective mass.^4 The voiding bladder model as implemented in OLINDA was used to determine bladder TIAC, assuming a voiding interval of 4 hours. The human alimentary tract model (HAT model) described in ICRP 100 and implemented in OLINDA was used to compute doses to the small intestine, right colon, left colon and rectum for patients showing clearance through the GI tract. The fraction of injected activity (fIA) cleared via the GI tract was determined by taking the peak fIA in the GI tract over all the imaging timepoints. […] The Red Marrow mass in L2-L4 was assumed to be 6.7% of the total red marrow mass.

SMILES: O=C([O-])CC[C@H](NC(=O)N[C@@H](CCCCNC(=O)CCCCCCC(=O)NCCCC[C@@H](NC(=O)[C@@H](Cc1ccccc1)NC(=O)[C@@H](Cc1ccc(O)c(I)c1)NC(=O)CC[C@H](C(=O)[O-])N1CCN(CC(=O)[O-])CCN(CC(=O)[O-])CCN(CC(=O)[O-])CC1)C(=O)[O-])C(=O)[O-])C(=O)[O-].[177Lu+3].[H+].[H+].[H+].[H+].[H+] [Lu-177 PSMA I&T]
- Kidneys absorbed dose (68.9 µg PSMA I&T content): 0.31 Gy/GBq
- Kidneys absorbed dose (71.6 µg PSMA I&T content): 0.36 Gy/GBq
- Kidneys absorbed dose (72.1 µg PSMA I&T content): 0.32 Gy/GBq and 0.54 Gy/GBq
- Kidneys absorbed dose (76.8 µg PSMA I&T content): 0.23 Gy/GBq
- Kidneys absorbed dose (77.0 µg PSMA I&T content): 0.28 Gy/GBq and 0.56 Gy/GBq
- Kidneys absorbed dose (77.7 µg PSMA I&T content): 0.41 Gy/GBq
- Kidneys absorbed dose (79.0 µg PSMA I&T content): 0.53 Gy/GBq
- Kidneys absorbed dose (79.4 µg PSMA I&T content): 0.81 Gy/GBq
- Kidneys absorbed dose (79.5 µg PSMA I&T content): 0.30 Gy/GBq and 0.38 Gy/GBq
- Kidneys absorbed dose (80.4 µg PSMA I&T content): 0.24 Gy/GBq
- Kidneys absorbed dose (82.0 µg PSMA I&T content): 0.17 Gy/GBq
- Kidneys absorbed dose (82.2 µg PSMA I&T content): 0.34 Gy/GBq
- Kidneys absorbed dose (82.6 µg PSMA I&T content): 0.29 Gy/GBq
- Kidneys absorbed dose (85.3 µg PSMA I&T content): 0.55 Gy/GBq
- Kidneys absorbed dose (89.2 µg PSMA I&T content): 0.43 Gy/GBq
- Kidneys absorbed dose (90.0 µg PSMA I&T content): 0.35 Gy/GBq
- Kidneys absorbed dose (92.6 µg PSMA I&T content): 0.05 Gy/GBq and 0.45 Gy/GBq
- Kidneys absorbed dose (99.2 µg PSMA I&T content): 0.57 Gy/GBq
- Kidneys absorbed dose (105.1 µg PSMA I&T content): 0.48 Gy/GBq
- Kidneys absorbed dose (108.5 µg PSMA I&T content): 0.27 Gy/GBq
- Kidneys absorbed dose (110.6 µg PSMA I&T content): 0.64 Gy/GBq
- Kidneys absorbed dose (119.1 µg PSMA I&T content): 0.28 Gy/GBq
- Lacrimal Glands absorbed dose (72.1 µg PSMA I&T content): 0.19 Gy/GBq and 0.20 Gy/GBq
- Lacrimal Glands absorbed dose (76.8 µg PSMA I&T content): 0.08 Gy/GBq
- Lacrimal Glands absorbed dose (77.0 µg PSMA I&T content): 0.07 Gy/GBq and 0.06 Gy/GBq
- Lacrimal Glands absorbed dose (77.7 µg PSMA I&T content): 0.66 Gy/GBq
- Lacrimal Glands absorbed dose (79.0 µg PSMA I&T content): 0.16 Gy/GBq
- Lacrimal Glands absorbed dose (79.4 µg PSMA I&T content): 0.63 Gy/GBq
- Lacrimal Glands absorbed dose (79.5 µg PSMA I&T content): 0.26 Gy/GBq and 0.47 Gy/GBq
- Lacrimal Glands absorbed dose (80.4 µg PSMA I&T content): 0.08 Gy/GBq
- Lacrimal Glands absorbed dose (82.0 µg PSMA I&T content): 0.07 Gy/GBq
- Lacrimal Glands absorbed dose (82.2 µg PSMA I&T content): 0.54 Gy/GBq
- Lacrimal Glands absorbed dose (89.2 µg PSMA I&T content): 0.38 Gy/GBq
- Lacrimal Glands absorbed dose (90.0 µg PSMA I&T content): 0.09 Gy/GBq
- Lacrimal Glands absorbed dose (92.6 µg PSMA I&T content): 0.05 Gy/GBq and 0.04 Gy/GBq
- Lacrimal Glands absorbed dose (105.1 µg PSMA I&T content): 1.19 Gy/GBq
- Lacrimal Glands absorbed dose (108.5 µg PSMA I&T content): 0.94 Gy/GBq and 1.09 Gy/GBq
- Lacrimal Glands absorbed dose (110.6 µg PSMA I&T content): 0.68 Gy/GBq
- Lacrimal Glands absorbed dose (119.1 µg PSMA I&T content): 0.62 Gy/GBq
- Liver absorbed dose (68.9 µg PSMA I&T content): 0.04 Gy/GBq
- Liver absorbed dose (71.6 µg PSMA I&T content): 0.02 Gy/GBq
- Liver absorbed dose (72.1 µg PSMA I&T content): 0.02 Gy/GBq
- Liver absorbed dose (76.8 µg PSMA I&T content): 0.03 Gy/GBq
- Liver absorbed dose (77.0 µg PSMA I&T content): 0.06 Gy/GBq and 0.02 Gy/GBq
- Liver absorbed dose (77.7 µg PSMA I&T content): 0.04 Gy/GBq
- Liver absorbed dose (79.0 µg PSMA I&T content): 0.03 Gy/GBq
- Liver absorbed dose (79.4 µg PSMA I&T content): 0.03 Gy/GBq
- Liver absorbed dose (79.5 µg PSMA I&T content): 0.03 Gy/GBq and 0.07 Gy/GBq
- Liver absorbed dose (80.4 µg PSMA I&T content): 0.10 Gy/GBq
- Liver absorbed dose (82.0 µg PSMA I&T content): 0.05 Gy/GBq
- Liver absorbed dose (82.2 µg PSMA I&T content): 0.02 Gy/GBq
- Liver absorbed dose (82.6 µg PSMA I&T content): 0.02 Gy/GBq
- Liver absorbed dose (85.3 µg PSMA I&T content): 0.02 Gy/GBq
- Liver absorbed dose (89.2 µg PSMA I&T content): 0.08 Gy/GBq
- Liver absorbed dose (90.0 µg PSMA I&T content): 0.04 Gy/GBq
- Liver absorbed dose (92.6 µg PSMA I&T content): 0.09 Gy/GBq and 0.01 Gy/GBq
- Liver absorbed dose (99.2 µg PSMA I&T content): 0.04 Gy/GBq
- Liver absorbed dose (105.1 µg PSMA I&T content): 0.06 Gy/GBq
- Liver absorbed dose (108.5 µg PSMA I&T content): 0.07 Gy/GBq and 0.05 Gy/GBq
- Liver absorbed dose (110.6 µg PSMA I&T content): 0.03 Gy/GBq
- Liver absorbed dose (119.1 µg PSMA I&T content): 0.02 Gy/GBq
- Salivary Glands absorbed dose (68.9 µg PSMA I&T content): 0.11 Gy/GBq
- Salivary Glands absorbed dose (71.6 µg PSMA I&T content): 0.16 Gy/GBq
- Salivary Glands absorbed dose (72.1 µg PSMA I&T content): 0.06 Gy/GBq and 0.00 Gy/GBq
- Salivary Glands absorbed dose (76.8 µg PSMA I&T content): 0.11 Gy/GBq
- Salivary Glands absorbed dose (77.0 µg PSMA I&T content): 0.19 Gy/GBq and 0.10 Gy/GBq
- Salivary Glands absorbed dose (77.7 µg PSMA I&T content): 0.04 Gy/GBq
- Salivary Glands absorbed dose (79.0 µg PSMA I&T content): 0.15 Gy/GBq
- Salivary Glands absorbed dose (79.4 µg PSMA I&T content): 0.12 Gy/GBq
- Salivary Glands absorbed dose (79.5 µg PSMA I&T content): 0.26 Gy/GBq and 0.19 Gy/GBq
- Salivary Glands absorbed dose (80.4 µg PSMA I&T content): 0.20 Gy/GBq
- Salivary Glands absorbed dose (82.0 µg PSMA I&T content): 0.32 Gy/GBq
- Salivary Glands absorbed dose (82.2 µg PSMA I&T content): 0.03 Gy/GBq
- Salivary Glands absorbed dose (82.6 µg PSMA I&T content): 0.16 Gy/GBq
- Salivary Glands absorbed dose (85.3 µg PSMA I&T content): 0.09 Gy/GBq
- Salivary Glands absorbed dose (89.2 µg PSMA I&T content): 0.39 Gy/GBq
- Salivary Glands absorbed dose (90.0 µg PSMA I&T content): 0.80 Gy/GBq
- Salivary Glands absorbed dose (92.6 µg PSMA I&T content): 0.13 Gy/GBq and 0.14 Gy/GBq
- Salivary Glands absorbed dose (99.2 µg PSMA I&T content): 0.27 Gy/GBq
- Salivary Glands absorbed dose (105.1 µg PSMA I&T content): 0.18 Gy/GBq
- Salivary Glands absorbed dose (108.5 µg PSMA I&T content): 0.29 Gy/GBq and 0.10 Gy/GBq
- Salivary Glands absorbed dose (110.6 µg PSMA I&T content): 0.03 Gy/GBq
- Salivary Glands absorbed dose (119.1 µg PSMA I&T content): 0.28 Gy/GBq
